Measurements: US11542249B2, “BTK inhibitor compounds” (Eli Lilly and Company, priority 2017, dated 2023)

Tests used:
[1] = biological target: human BTK (Homo sapiens (Human), UniProt Q06187); experiment: BTK LANTHASCREEN Eu Kinase Binding Assay; conditions: IC50 value ± standard deviation; full-length His-labeled BTK, kinase tracer 236; read-out: hBTK Rel IC50
Protocol: (§1) BTK and EGFR in Vitro Assays:
(§2) The BTK and EGFR biochemical assays utilize LANTHASCREEN® Eu Kinase Binding Assays from Thermo Fisher Scientific, measuring the binding of the kinase with a […] tracer. The assay buffer consists of 50 mM HEPES pH 7.5, 0.01% BRU™-35, 10 mM MgCl2, 1 mM EGTA, and 1 mM DTT. The test compounds are diluted and added to the assay plate with a Labcyte ECHO® 555 liquid handler. The compounds are tested in 10 point dose response curves (100 μM-0.005 μM) with a maximum DMSO concentration of 1%. The assays are performed in 20 μL in low-volume 384-well white proxiplates. For the BTK assay, the concentration of full-length His-labeled BTK in the assay is 5 nM, the Eu-anti-His antibody is 2 nM, and the kinase tracer 236 is 60 nM. For the EGFR assay, the concentration of truncated (amino acids 668-1210) GST-labeled EGFR is 5 nM, the Eu-anti-GST antibody is 2 nM, and the kinase tracer 199 is 10 nM. The components of the assay (compound, enzyme/antibody, tracer) are assembled and incubated for 30 min prior to being read on a Perkin-Elmer EnVision with excitation at 340 nm, tracer emission at 665 nm, and antibody emission at 615 nm. The signal ratio is converted to percent inhibition using the following equation: % Inhibition=100−[(Test Compound−Median Minimum)/(Median Maximum−Median Minimum)×100].
(§3) The following Table 1 and Table 2 describes the relative IC50 data vs. human BTK, human EGFR, and human whole blood CD69.

[2] = biological target: human EGFR (Homo sapiens (Human), UniProt P00533); experiment: EGFR LANTHASCREEN Eu Kinase Binding Assay; conditions: IC50 value ± standard deviation; truncated GST-labeled EGFR, kinase tracer 199; read-out: hEGFR Rel IC50
Chain of human EGFR (P00533 668-1210): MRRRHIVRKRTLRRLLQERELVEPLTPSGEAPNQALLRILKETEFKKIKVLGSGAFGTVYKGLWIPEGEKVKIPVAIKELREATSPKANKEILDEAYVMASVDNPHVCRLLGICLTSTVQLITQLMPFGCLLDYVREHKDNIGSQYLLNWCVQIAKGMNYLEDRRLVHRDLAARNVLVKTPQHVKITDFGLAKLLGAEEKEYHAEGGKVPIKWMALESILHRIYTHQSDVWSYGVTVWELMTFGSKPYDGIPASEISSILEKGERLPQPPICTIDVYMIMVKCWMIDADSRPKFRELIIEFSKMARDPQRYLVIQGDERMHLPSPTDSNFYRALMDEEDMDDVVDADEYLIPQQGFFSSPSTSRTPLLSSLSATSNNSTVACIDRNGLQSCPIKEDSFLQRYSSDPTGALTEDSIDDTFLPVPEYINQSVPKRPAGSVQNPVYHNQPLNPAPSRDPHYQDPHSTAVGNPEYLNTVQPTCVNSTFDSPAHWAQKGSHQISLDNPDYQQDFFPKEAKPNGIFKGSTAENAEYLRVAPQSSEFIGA
Protocol: as §1, §2

[3] = system: activated B cells in human whole blood (CD69); experiment: Human Whole Blood CD69 in vitro assay (B cell activation, flow cytometry); assay type: cell-based; conditions: IC50 value ± standard deviation, anti-human-IgD-Dextran stimulation, read-out: HWB CD69 Rel IC50
Protocol: Human Whole Blood CD69 in Vitro Assay:
The HWB CD69 assay measures activated B cells in human whole blood using a flow cytometer. Compounds are diluted and added to assay plates with a Labcyte ECHO® 555 liquid handler. Compounds are tested in 10 point dose response curves (20 μM-0.001 μM) in 96-well v-bottom plates with a maximum DMSO concentration of 0.2%. Fresh blood from individual healthy volunteer is mixed with HEPES (0.5 ml HEPES added per 10 ml blood) and 100 μl/well is added to compound plates. The plates are sealed and incubated in a 37° C. incubator for 3 h. Anti-human-IgD-Dextran is added to each well to give a final concentration of 100 ng/ml, mixed, and put back into the incubator. After 1 h, the cells are washed with cold FACS buffer and transferred to a deep well plate. The cells are incubated with anti-human CD69-PE (BIOLEGEND®, clone FN50) and anti-human CD19-APC (BIOLEGEND®, clone HIB19) antibodies on ice for 20 min. The cells are washed and incubated in eBioscience™ 1-step Fix/Lyse solution (10×) at RT to lyse the red blood cells and fix the other cells. The white cells are pelleted and washed in FACS buffer and then brought up in read buffer. The suspended cells are transferred to 96-well round bottom plates and read on an IntelliCyt iQue® Screener Plus flow cytometer. From the SSC (Side Scatter Channel) vs FSC (Forward Scatter Channel) graph, the lymphocytes are identified. Lymphocytes are identified with gated on positive CD19 marker for quantify CD69 (a marker of activated B lymphocytes) MFI (mean fluorescent intensity/cell). The signal ratio is converted to percent inhibition using the following equation: % Inhibition=100−[(Test Compound−Median Min)/(Median Max−Median Min)×100].
as §3

[4] = Rat Oral Bioavailability; assay type: in vivo, Sprague-Dawley rats; conditions: Sprague-Dawley, plasma, PO 3 mg/kg vs IV 1 mg/kg, read-out: Rat Oral Bioavailability (% F)
Protocol: The test compound is administered to Sprague-Dawley rats intravenously (IV) at 1 mg/kg (using vehicles of either: 20% CAPTISOL® in 25 mM sodium phosphate buffer, pH2 quantum satis; or 25% DMA, 15% EtOH, 10% propylene glycol, 25% 2-pyrrolidone, and 25% purified water) and orally (PO) at 3 mg/kg (using a vehicle of 1% hydroxyethyl cellulose, 0.25% polysorbate 80, 0.05% Antifoam 1510-US, and purified water quantum satis). Serial blood samples are collected at 0.08, 0.25, 0.5, 1, 2, 4, 8, and 12 h post dose for IV bolus and at 0.25, 0.5, 1, 2, 4, 8, and 12 h post dose after oral administration. After treatment with an EDTA […], plasma is obtained by centrifugation and stored at −70° C. until analysis by LC-MS/MS. Test article concentration is determined in plasma and uploaded into the Watson LIMS™ system where noncompartmental analysis is used to calculate Area Under the Curve (AUC) for both IV and PO arms. Bioavailability (% F) is calculated via the following equation, %F=(AUCPO×DoseIV)/(AUCIV×DosePO)×100. Table 3 indicates the rat oral bioavailability of select BTK inhibitors.

[5] = system: type II collagen-induced arthritis (CIA) rat model; experiment: Rat In Vivo Collagen-Induced Arthritis Assay; design: species or system Female Lewis rats; conditions: for % inhibition paw thickness AUC vs Vehicle control / % paw thickness AUC (mm) ± SE: CIA rats, 9 days; for arthritis severity in CIA rats: compared to vehicle treated CIA rats
Protocol: A type II collagen-induced arthritis (CIA) rat model may be used to evaluate the therapeutic effects of compounds. Female Lewis rats (Charles River Charles River Laboratories, Inc.) with a mean body weight of 155-175 g are used for the study. Animals are fed with standard rodent chow and provided water ad libitum. Immunization emulsion is prepared with 2 mg/ml bovine collagen-II mixed with an equal volume of incomplete Freund's adjuvant (IFA). Rats are immunized intradermally with 0.4 ml collagen emulsion in two sites each on the lower lumbar region, above the base of the tail on day 1, and again on day 8. Animals are randomized based on the paw thickness and body weight on day 11 into study groups, with 8 rats in each group. Compounds are prepared in 1% HEC/0.25% P80/0.05% anti-foam in purified water and dosed daily via oral gavage for 9 days. Paw thickness is quantitated daily using a caliper measurement in the right ankle site.
The inhibition by the compounds of the invention is evaluated using Dunnett's post test for multiple comparisons for the CIA rat groups treated with the indicated Example compound, at the indicated dose, as compared to CIA rat groups treated with vehicle, and differences of P<0.05 are considered to be significant. […] Mean sum paw thickness is decreased compared to vehicle treated CIA rats. Mean percent paw thickness inhibition during the treatment period illustrates dose-related improvement.
Table 4 indicates the in vivo activity for exemplified BTK inhibitors in the collagen-induced arthritis model (SE=standard error).

Chain of human BTK (Q06187 whole entry): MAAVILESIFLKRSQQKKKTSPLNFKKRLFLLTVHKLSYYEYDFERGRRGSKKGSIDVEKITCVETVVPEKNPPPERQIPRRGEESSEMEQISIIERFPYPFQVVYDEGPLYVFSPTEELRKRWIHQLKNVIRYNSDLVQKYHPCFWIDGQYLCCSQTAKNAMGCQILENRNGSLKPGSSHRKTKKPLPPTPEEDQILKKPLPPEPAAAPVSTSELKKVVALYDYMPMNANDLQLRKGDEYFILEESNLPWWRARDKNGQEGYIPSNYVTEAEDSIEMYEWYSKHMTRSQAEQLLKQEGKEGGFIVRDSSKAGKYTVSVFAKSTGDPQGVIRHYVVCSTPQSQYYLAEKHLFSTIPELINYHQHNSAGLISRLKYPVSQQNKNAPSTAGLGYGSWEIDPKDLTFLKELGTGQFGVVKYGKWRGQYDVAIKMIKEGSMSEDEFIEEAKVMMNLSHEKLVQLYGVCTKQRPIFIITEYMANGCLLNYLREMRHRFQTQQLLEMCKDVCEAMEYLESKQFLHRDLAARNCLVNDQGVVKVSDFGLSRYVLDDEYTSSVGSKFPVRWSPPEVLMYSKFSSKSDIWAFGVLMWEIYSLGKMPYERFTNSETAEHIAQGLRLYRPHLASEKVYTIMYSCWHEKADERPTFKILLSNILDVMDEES

Row | Structure (SMILES) | IC50 [1] [nM] | IC50 [2] [nM] | IC50 [3] [nM] | bioavailability [4] [%] | % inhibition paw thickness AUC vs Vehicle control ([5]; 0.3 mg/kg/d oral) [%] | % paw thickness AUC (mm) ± SE ([5]; 0.3 mg/kg/d oral) [mm] | % inhibition paw thickness AUC vs Vehicle control ([5]; 1 mg/kg/d oral) [%] | % paw thickness AUC (mm) ± SE ([5]; 1 mg/kg/d oral) [mm] | % inhibition paw thickness AUC vs Vehicle control ([5]; 3 mg/kg/d oral) [%] | % paw thickness AUC (mm) ± SE ([5]; 3 mg/kg/d oral) [mm] | arthritis severity in CIA rats [5] | % inhibition paw thickness AUC vs Vehicle control ([5]; 10 mg/kg/d oral) [%] | % paw thickness AUC (mm) ± SE ([5]; 10 mg/kg/d oral) [mm]
1 | C=CC(=O)N1CC[C@H](Nc2cncc(-c3cnc(Nc4cccc(OC(F)(F)F)c4)nc3)n2)C1 [Example 33, 1-[(3S)-3-[[6-[2-[3-(trifluoromethoxy)anilino]pyrimidin-5-yl]pyrazin-2-yl]amino]pyrrolidin-1-yl]prop-2-en-1-one] | 9.44 ± 2.26 | 22200 ± 19500 | 261 ± 145 | 44.6 | 24 | 73.61 ± 2.09 | 52 | 68.32 ± 2.30 | 59 | 67.00 ± 1.52 | dose-related reduction |  | 
2 | C=CC(=O)N1CC(Nc2cncc(-c3cnc(Oc4cccc(Cl)c4)nc3)n2)C1 [Example 31, 1-[3-[[6-[2-(3-chlorophenoxy)pyrimidin-5-yl]pyrazin-2-yl]amino]azetidin-1-yl]prop-2-en-1-one] | 9.49 ± 3.21 | 366 ± 87 | 419 ± 118 | 54.1 |  |  | 62 | 66.10 ± 1.83 | 81 | 63.70 ± 0.96 | dose-related reduction | 82 | 64.33 ± 1.00
3 | C=CC(=O)N1CC(Nc2cncc(-c3cnc(Oc4cccc(OC(F)F)c4)nc3)n2)C1 [Example 24, 1-[3-[[6-[2-[3-(difluoromethoxy)phenoxy]pyrimidin-5-yl]pyrazin-2-yl]amino]azetidin-1-yl]prop-2-en-1-one] | 8.53 ± 3.24 |  | 177 ± 41.6 | 41 |  |  | 28 | 65.04 ± 2.31 | 49 | 61.43 ± 4.47 | dose-related reduction | 63 | 59.24 ± 1.49
4 | C=CC(=O)N1CC(Nc2cncc(-c3cnc(Oc4cccc(OC(F)(F)F)c4)nc3)n2)C1 [Example 27, 1-[3-[[6-[2-[3-(trifluoromethoxy)phenoxy]pyrimidin-5-yl]pyrazin-2-yl]amino]azetidin-1-yl]prop-2-en-1-one] | 33.7 ± 10.8 | 10400 ± 11500 | 664 ± 314 | 38.4 |  |  | 24 | 73.30 ± 0.95 | 45 | 69.58 ± 1.26 | dose-related reduction |  | 
5 | C=CC(=O)N1CC[C@H](Nc2cncc(-c3cnc(Oc4cccc(OC(F)F)c4)nc3)c2)C1 [Example 5, 1-[(3S)-3-[[5-[2-[3-(difluoromethoxy)phenoxy]pyrimidin-5-yl]-3-pyridyl]amino]pyrrolidin-1-yl]prop-2-en-1-one] |  |  | 485 ± 234 | 36.6 |  |  | 34 | 71.68 ± 2.24 | 58 | 67.18 ± 1.07 |  |  | 
6 | C=CC(=O)N1CCC(Nc2cncc(-c3cnc(Nc4cccc(Cl)c4)nc3)c2)CC1 [Example 19, 1-[4-[[5-[2-(3-chloroanilino)pyrimidin-5-yl]-3-pyridyl]amino]-1-piperidyl]prop-2-en-1-one] | < 5 | 523 ± 112 | 148 ± 33.1 | 79.2 |  |  |  |  |  |  |  |  | 
7 | C=CC(=O)N1CCC(Nc2cncc(-c3cnc(Oc4cccc(Cl)c4)nc3)n2)CC1 [Example 44, 1-[4-[[6-[2-(3-chlorophenoxy)pyrimidin-5-yl]pyrazin-2-yl]amino]-1-piperidyl]prop-2-en-1-one] | 6.11 | 207 ± 31.9 | 126 ± 29.7 | 36.8 |  |  |  |  |  |  |  |  | 
